Test results from ChEMBL document CHEMBL4346735, “Discovery and pharmacological evaluation of indole derivatives as potent and selective RORγt inverse agonist for multiple autoimmune conditions” (Bioorg Med Chem Lett, 2019).
≈ marks a conversion by molar mass, not a printed value.

Columns and labels:
[1] = target: Cytochrome P450 2C9 (Homo sapiens, UniProt P11712); assay: Inhibition of CYP2C9 in human liver microsomes using diclofenac as substrate preincubated for 5 mins followed by NADPH addition measured after 10 mins by LC-MS/MS analysis
Chain of Cytochrome P450 2C9 (P11712 whole entry, the tested form may be a part): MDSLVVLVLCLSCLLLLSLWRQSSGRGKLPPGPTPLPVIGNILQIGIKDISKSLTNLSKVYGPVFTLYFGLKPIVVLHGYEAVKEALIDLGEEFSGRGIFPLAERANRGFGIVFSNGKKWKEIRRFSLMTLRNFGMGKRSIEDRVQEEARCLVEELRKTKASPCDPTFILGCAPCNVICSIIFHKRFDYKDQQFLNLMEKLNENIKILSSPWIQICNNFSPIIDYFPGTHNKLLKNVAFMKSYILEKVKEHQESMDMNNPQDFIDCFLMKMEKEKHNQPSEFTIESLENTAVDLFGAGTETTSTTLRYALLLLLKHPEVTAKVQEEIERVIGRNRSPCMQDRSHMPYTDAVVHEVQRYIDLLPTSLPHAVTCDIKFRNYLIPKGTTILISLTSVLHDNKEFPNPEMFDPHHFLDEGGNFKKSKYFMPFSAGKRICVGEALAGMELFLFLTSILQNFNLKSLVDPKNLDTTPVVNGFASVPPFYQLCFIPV

[2] = target: T1, Nuclear receptor ROR-gamma (Homo sapiens, UniProt P51449); assay: Inverse agonist activity at GST-tagged RORgammat LBD (unknown origin) using fluorescein-D22 co-activator peptide as substrate incubated for 1 hr by TR-FRET assay
T1 sequence (P51449 whole entry): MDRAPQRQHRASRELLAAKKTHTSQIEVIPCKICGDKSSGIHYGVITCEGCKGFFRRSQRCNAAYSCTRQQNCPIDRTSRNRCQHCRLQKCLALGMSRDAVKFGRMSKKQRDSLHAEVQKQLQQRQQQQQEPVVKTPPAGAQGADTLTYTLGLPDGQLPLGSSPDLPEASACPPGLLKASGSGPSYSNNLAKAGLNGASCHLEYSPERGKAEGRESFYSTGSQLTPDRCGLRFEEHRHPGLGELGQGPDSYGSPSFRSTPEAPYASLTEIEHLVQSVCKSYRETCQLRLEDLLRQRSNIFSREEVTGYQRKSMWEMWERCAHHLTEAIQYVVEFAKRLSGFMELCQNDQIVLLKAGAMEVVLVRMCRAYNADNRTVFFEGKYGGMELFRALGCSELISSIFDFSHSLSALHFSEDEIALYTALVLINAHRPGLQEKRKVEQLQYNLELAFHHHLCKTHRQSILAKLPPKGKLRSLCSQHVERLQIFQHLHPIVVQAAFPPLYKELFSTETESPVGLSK

[3] = AUC (0 to t) in Balb/c mouse at 3 mg/kg, iv administered as single dose by LC-MS/MS analysis; assay type: ADME, organism-based; conditions: in vivo
[4] = Solubility of the compound at pH 7.4; conditions: buffer
[5] = Oral bioavailability in Balb/c mouse at 10 mg/kg administered via gavage by LC-MS/MS analysis; assay type: ADME, organism-based; conditions: in vivo
[6] = target: T2, Cytochrome P450 3A4 (Homo sapiens, UniProt P08684); assay: Inhibition of CYP3A4 in human liver microsomes using testosterone as substrate preincubated for 5 mins followed by NADPH addition measured after 10 mins by LC-MS/MS analysis
T2 sequence (P08684 whole entry): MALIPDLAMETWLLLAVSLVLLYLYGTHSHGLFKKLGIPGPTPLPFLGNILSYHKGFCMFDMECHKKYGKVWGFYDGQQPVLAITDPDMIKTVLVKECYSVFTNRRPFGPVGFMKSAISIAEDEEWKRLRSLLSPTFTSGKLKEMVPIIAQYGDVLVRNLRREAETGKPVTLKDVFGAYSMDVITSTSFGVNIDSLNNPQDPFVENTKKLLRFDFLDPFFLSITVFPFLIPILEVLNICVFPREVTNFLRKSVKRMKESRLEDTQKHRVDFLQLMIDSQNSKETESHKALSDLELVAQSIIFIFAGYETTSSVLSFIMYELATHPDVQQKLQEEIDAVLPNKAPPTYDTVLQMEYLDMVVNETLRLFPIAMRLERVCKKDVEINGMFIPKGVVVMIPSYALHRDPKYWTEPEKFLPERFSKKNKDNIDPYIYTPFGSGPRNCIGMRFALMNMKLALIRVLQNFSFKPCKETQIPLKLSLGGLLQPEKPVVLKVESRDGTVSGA

[7] = Solubility of the compound at pH 4; conditions: buffer
[8] = Solubility of the compound at pH 2.1; conditions: buffer
[9] = Metabolic stability in rat liver microsomes assessed as parent compound remaining at 1 uM preincubated for 5 mins followed by NADPH addition after 30 mins by LC-MS/MS analysis; assay type: ADME, Microsome; conditions: read-out: Stability
[10] = Metabolic stability in mouse liver microsomes assessed as parent compound remaining at 1 uM preincubated for 5 mins followed by NADPH addition after 30 mins by LC-MS/MS analysis; assay type: ADME, Microsome; conditions: read-out: Stability
[11] = target: Cytochrome P450 2D6 (Homo sapiens, UniProt P10635); assay: Inhibition of CYP2D6 in human liver microsomes using dextromethorphan as substrate preincubated for 5 mins followed by NADPH addition measured after 10 mins by LC-MS/MS analysis
Chain of Cytochrome P450 2D6 (P10635 whole entry): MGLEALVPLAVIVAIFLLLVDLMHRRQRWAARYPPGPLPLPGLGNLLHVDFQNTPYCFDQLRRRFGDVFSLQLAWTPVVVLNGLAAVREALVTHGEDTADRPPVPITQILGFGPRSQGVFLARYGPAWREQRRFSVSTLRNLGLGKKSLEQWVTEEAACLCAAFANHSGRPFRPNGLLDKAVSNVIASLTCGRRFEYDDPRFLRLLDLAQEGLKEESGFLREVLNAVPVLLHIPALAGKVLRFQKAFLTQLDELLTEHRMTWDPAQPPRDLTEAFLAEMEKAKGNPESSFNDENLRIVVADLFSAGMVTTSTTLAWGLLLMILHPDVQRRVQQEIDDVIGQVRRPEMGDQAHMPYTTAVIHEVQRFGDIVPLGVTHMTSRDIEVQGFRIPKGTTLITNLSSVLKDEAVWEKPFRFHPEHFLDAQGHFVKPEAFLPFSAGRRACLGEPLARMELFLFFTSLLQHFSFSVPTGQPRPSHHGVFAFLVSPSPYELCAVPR

[12] = target: T2, Cytochrome P450 3A4; assay: Inhibition of CYP3A4 in human liver microsomes using midazolam as substrate preincubated for 5 mins followed by NADPH addition measured after 10 mins by LC-MS/MS analysis
[13] = target: Cytochrome P450 2C19 (Homo sapiens, UniProt P33261); assay: Inhibition of CYP2C19 in human liver microsomes using (S)-mephenytoin as substrate preincubated for 5 mins followed by NADPH addition measured after 40 mins by LC-MS/MS analysis
Chain of Cytochrome P450 2C19 (P33261 whole entry): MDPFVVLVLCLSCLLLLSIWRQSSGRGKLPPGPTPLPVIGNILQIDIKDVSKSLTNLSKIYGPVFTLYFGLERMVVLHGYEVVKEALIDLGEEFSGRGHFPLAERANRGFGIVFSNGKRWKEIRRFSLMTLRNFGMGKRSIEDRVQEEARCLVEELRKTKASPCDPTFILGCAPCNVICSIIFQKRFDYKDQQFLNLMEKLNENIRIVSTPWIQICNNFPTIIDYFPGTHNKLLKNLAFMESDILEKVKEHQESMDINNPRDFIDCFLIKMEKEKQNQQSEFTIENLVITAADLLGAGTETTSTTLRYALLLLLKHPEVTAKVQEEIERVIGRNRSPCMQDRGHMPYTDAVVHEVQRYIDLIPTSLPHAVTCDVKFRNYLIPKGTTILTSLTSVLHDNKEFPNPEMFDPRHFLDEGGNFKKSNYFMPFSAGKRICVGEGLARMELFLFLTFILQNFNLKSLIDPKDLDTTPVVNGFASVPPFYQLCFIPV

[14] = target: T3, Cytochrome P450 1A2 (Homo sapiens, UniProt P05177); assay: Inhibition of CYP1A2 in human liver microsomes using phenacetin as substrate preincubated for 5 mins followed by NADPH addition measured after 10 mins by LC-MS/MS analysis
T3 sequence (P05177 whole entry): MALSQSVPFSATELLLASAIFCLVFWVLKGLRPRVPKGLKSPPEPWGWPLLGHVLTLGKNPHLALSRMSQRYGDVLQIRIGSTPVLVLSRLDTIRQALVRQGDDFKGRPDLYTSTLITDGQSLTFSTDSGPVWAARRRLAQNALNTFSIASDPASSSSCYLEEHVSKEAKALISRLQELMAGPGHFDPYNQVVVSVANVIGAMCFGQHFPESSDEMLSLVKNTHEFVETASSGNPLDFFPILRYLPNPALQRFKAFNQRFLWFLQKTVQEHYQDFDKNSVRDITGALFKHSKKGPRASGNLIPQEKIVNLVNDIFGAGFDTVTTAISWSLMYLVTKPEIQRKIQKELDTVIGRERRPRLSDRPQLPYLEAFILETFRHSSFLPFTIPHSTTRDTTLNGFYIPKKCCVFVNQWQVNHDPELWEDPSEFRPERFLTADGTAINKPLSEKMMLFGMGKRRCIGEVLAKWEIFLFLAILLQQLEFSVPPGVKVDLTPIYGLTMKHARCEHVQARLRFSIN

[15] = target: T4, Nuclear receptor ROR-gamma (Mus musculus, UniProt P51450); assay: Inverse agonist activity at RORgammat in mouse splenocytes derived naive T cells assessed as suppression of T cell differentiation to Th17 cells by measuring IL-17 secretion in presence of […]/anti-IFNgamma/TGFbeta/IL-6 for 6 days by ELISA; assay type: cell-based
T4 sequence (P51450 whole entry): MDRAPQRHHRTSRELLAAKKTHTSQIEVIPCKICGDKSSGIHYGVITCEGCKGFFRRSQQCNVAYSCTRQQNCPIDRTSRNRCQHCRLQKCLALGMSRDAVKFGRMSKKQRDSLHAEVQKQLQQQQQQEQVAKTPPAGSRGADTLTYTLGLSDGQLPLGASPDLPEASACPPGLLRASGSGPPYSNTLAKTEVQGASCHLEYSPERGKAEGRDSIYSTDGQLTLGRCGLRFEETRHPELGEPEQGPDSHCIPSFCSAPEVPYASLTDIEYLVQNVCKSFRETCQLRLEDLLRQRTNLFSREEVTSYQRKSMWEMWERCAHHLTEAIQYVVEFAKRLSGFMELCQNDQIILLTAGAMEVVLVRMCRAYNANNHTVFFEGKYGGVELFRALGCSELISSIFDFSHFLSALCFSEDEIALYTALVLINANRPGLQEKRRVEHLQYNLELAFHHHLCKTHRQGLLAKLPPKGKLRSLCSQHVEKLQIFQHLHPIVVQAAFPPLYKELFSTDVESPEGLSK

[16] = Drug metabolism in rat liver microsomes assessed as oxidation metabolic rate at 1 uM preincubated for 5 mins followed by NADPH addition after 30 mins by LC-MS/MS analysis; assay type: ADME, Microsome; conditions: 0.5 h
[17] = target: T1, Nuclear receptor ROR-gamma; assay: Transactivation of recombinant GAL4-DBD fused RORgammat LBD (unknown origin) expressed in HEK293T cells incubated for 18 to 24 hrs by dual-Glo luciferase assay; assay type: cell-based
[18] = Drug metabolism in mouse liver microsomes assessed as oxidation metabolic rate at 1 uM preincubated for 5 mins followed by NADPH addition after 30 mins by LC-MS/MS analysis; assay type: ADME, Microsome; conditions: 0.5 h
[19] = Metabolic stability in human liver microsomes assessed as parent compound remaining at 1 uM preincubated for 5 mins followed by NADPH addition after 30 mins by LC-MS/MS analysis; assay type: ADME, Microsome; conditions: read-out: Stability
[20] = Drug metabolism in human pooled liver microsomes assessed as oxidation metabolic rate at 1 uM preincubated for 5 mins followed by NADPH addition after 30 mins by LC-MS/MS analysis; assay type: ADME, Microsome; conditions: 0.5 h
[21] = Half life in Balb/c mouse at 3 mg/kg, iv administered as single dose by LC-MS/MS analysis; assay type: ADME, organism-based; conditions: in vivo
[22] = Clearance in Balb/c mouse at 3 mg/kg, iv administered as single dose by LC-MS/MS analysis; assay type: ADME, organism-based; conditions: in vivo
[23] = target: T5, Nuclear receptor ROR-gamma (Mus musculus) (UniProt P51450); assay: Transrepression of RORgammat in Balb/c mouse splenocytes assessed as inhibition of anti-CD3/anti-CD28 stimulated IL-17 gene expression at 30 uM measured after 24 hrs in presence of anti-CD3/anti-CD28; assay type: cell-based
T5 sequence (whole entry): T4 sequence (P51450 whole entry)

[24] = target: T5, Nuclear receptor ROR-gamma (Mus musculus); assay: Transrepression of RORgammat in Balb/c mouse splenocytes assessed as inhibition of anti-CD3/anti-CD28 stimulated IL-17 gene expression at 3 uM measured after 24 hrs in presence of anti-CD3/anti-CD28; assay type: cell-based
[25] = target: T5, Nuclear receptor ROR-gamma (Mus musculus); assay: Transrepression of RORgammat in Balb/c mouse splenocytes assessed as inhibition of anti-CD3/anti-CD28 stimulated IL-17 gene expression at 0.3 uM measured after 24 hrs in presence of anti-CD3/anti-CD28; assay type: cell-based

Row | Compound | IC50 [1] | IC50 [2] | solubility [4] | IC50 [6] | solubility [7] | solubility [8] | remaining at 0.5 h, 1 µM [9] | remaining at 0.5 h, 1 µM [10] | IC50 [11] | IC50 [12] | IC50 [13] | IC50 [14] | IC50 [17] | remaining at 0.5 h, 1 µM [19] | also measured
1 | O=C(O)c1ccc(-n2cc(C(=O)c3c(Cl)cccc3Cl)c3ccccc32)cc1 | 3.8 µM | 0.0016 µM | 19 µM (≈ 7.79 µg/mL) | 15.5 µM | < 1 µM | < 1 µM | 76% | 99% | > 100 µM | > 100 µM | 67.6 µM | 29.9 µM | 0.028 µM | 99% | AUC(0-t) [3]: 12.5 µM·h; bioavailability [5]: 53%; IC50 [15]: 0.058 µM; Drug metabolism [16]: 0.08 nmol/min/mg; Drug metabolism [18]: < 0.04 nmol/min/mg; Drug metabolism [20]: < 0.04 nmol/min/mg; half-life [21]: 4.6 h; clearance [22]: 1.02 L/h/kg
2 | O=C(O)c1ccc(-n2cc(C(=O)c3c(Cl)cccc3Cl)c3c(F)cccc32)cc1 | > 50 µM | 0.025 µM | > 2000 µM | 49 µM | < 1 µM | < 1 µM | 78% | 100% | > 50 µM | > 50 µM | > 50 µM | > 50 µM | 0.076 µM | 100% | 
3 | O=C(O)c1ccc(-n2cc(C(=O)c3c(Cl)cccc3C(F)(F)F)c3cccc(F)c32)cc1 |  |  |  |  |  |  | 100% | 88% |  |  |  |  |  | 88% | inhibition [23]: 55%; inhibition [24]: 46%; inhibition [25]: 18%
